Source: PMC11767801, “Purine but Not Pyrimidine De Novo Nucleotide Biosynthesis Inhibitors Strongly Enhance the Antiviral Effect of Corresponding Nucleobases Against Dengue Virus” (Molecules, 2025)
Entries after “also recorded” stand apart in the source; their conditions may differ. Where two headings read alike, the source gives them in different places.

Assays:
[1] = system: ZIKV PAN1 Nluc reporter virus; assay: ZIKV nanoluc reporter virus assay in A549 Ace2 TMPRSS2 cells; type: cell-based, Zika virus (ZIKV); conditions: three days
Protocol: (§1) Figure 5 Flavivirus inhibition by the nucleobase 2-thiouracil (2SU) and the corresponding nucleoside 2-thiouridine (2SUridine). (A) Dose–response assay for inhibition of a ZIKV nanoluc reporter. Cells were inoculated with reporter virus for two hours, washed, and then compound-added. Three days later, cells were lysed, and the luciferase activity was analyzed. (B) DENV-induced cytopathic effects in compound-treated cells. Cells were inoculated with DENV for two hours, washed, and compound-added for five days. A neutral red assay was performed to determine cell viability. (C) Same as in (B), except the cells are not treated with virus. NITD = NITD008 a positive-control DENV inhibitor.
The following viruses were used in this study: (i) ZIKV PAN1 Nluc reporter virus has a nanoluc gene inserted into the viral genome as described. The virus was propagated and virus preps tittered as described. (ii) DENV type 2 New Guinea C strain (VR-1584) was obtained from ATCC (Manassas, VA, USA) and propagated in C6/36 mosquito cells as described.
The ZIKV nanoluc reporter virus assay was performed as described. Briefly, A549 Ace2 TMPRSS2 cells were plated into 96-well plates at 15,000 per well the night before use. […] The luciferase levels were measured using a Neo 2 plate reader (BioTek, Winooski, USA).

[2] = Cell viability assay (MTS); type: cell-based; conditions: hamster
Protocol: (§2) The following cell lines were used in this study: (i) Huh7 was purchased from JCRB Cell Bank (Seikisui XenoTech, Kansas City, MO, USA) and cultured in Minimum Essential Medium (MEM) supplemented with 10% fetal bovine serum (FBS), and 1× non-essential amino acids (NEAA), 1 mM sodium pyruvate, 100 IU penicillin/streptomycin per mL, 5 µg/mL plasmocin (InvivoGen, San Diego, CA, USA), 1× GlutaMAX, and (ii) BHK pD2-hRucPac-2ATG30 DENV replicon cells were a gift from M. Diamond (Washington University School of Medicine) and cultured in Dulbecco’s modified Eagle’s medium (DMEM) supplemented with 10% FBS, 100 IU penicillin/streptomycin per mL, 5 µg/mL plasmocin, 1× GlutaMAX, and 3 µg/mL puromycin (InvivoGen). (iii) A549 Ace2 TMPRSS2 cells were provided by M. Saeed (Boston University) and grown in DMEM supplemented with 10% FBS, 100 IU penicillin/streptomycin per mL, 10 mM HEPES, 1× NEAA, 1× GlutaMAX, 1 mM sodium pyruvate, 5 µg/mL plasmocin, 0.5 µg/mL puromycin, and 0.5 µg/mL blasticidin (InvivoGen).
(§3) Cell viability assays were performed as described in [9, 10, 23]. Briefly, DENV replicon cells were plated at 1500–2000 cells per well of a 96-well dish plate (Corning, NY, USA) the day before use. The next day, compounds were added and cells incubated at 37 °C, 5% CO2, in a humidified incubator for three days. The cells were washed with phosphate-buffered saline (PBS) and incubated with the MTS reagent (Promega G5430, Madison, WI, USA) as per the manufacturer’s instructions. The plates were read at a 490 nm wavelength at 30 min intervals in a BioTek (Winooski, VT, USA) Neo2 plate reader.

DENV replicon = DENV replicon cell assay (Renilla luciferase); type: cell-based, Dengue virus (DENV); conditions: for EC50: Dengue virus; for potentiation of anti-replicon activity (in words): purine nucleobase combined with 6MMPR and/or 6MMPR prodrugs
Protocol: as §2
The DENV replicon assay was performed as described. Briefly, DENV replicon cells were plated at 1500–2000 cells per well […] of a 96-well dish (Corning, USA) plate the day before use. The next day, compounds were added and cells incubated at 37 °C, 5% CO2, in a humidified incubator for three days. The cells were the washed with PBS and Complete Promega Renilla reagent was added (Promega E2720, Madison, USA, 1 µL Renilla-Glo Substrate + 99 µL Renilla-Glo Buffer + 100 µL phenol-red-free DMEM supplemented with 10% FBS per well). Cells were lysed for 10 min at room temp and 160 µL of lysate per well was transferred to wells of a 96-well opaque white plate (Falcon 353296, Corning, USA), and luminescence was measured using a BioTek (Winooski, USA) Neo2 plate reader.

[3] = system: DENV type 2 New Guinea C strain; assay: DENV CPE assay in Huh7 cells (neutral red); type: cell-based, Dengue virus (DENV); conditions: five days
Protocol: as §1
The following viruses were used in this study: (i) ZIKV PAN1 Nluc reporter virus has a nanoluc gene inserted into the viral genome as described. The virus was propagated and virus preps tittered as described. […]
Huh7 cells were plated into 96-well plates at 10,000 cells per well the day before use. […] The compounds were removed, and the viability of the cells was measured using a neutral red staining assay. […] Neutral red destain buffer (50% ethanol, 49% H2O, and 1% glacial acetic acid) was added at 100 µL per well and the plates were read at 540 nm in a Molecular Device (San Jose, CA, USA) M5e plate reader.

DENV = system: DENV; design: method as in PMID 29672522; conditions: cited from earlier work
[4] = system: DENV replicon cells (BHK pD2-hRucPac-2ATG30); assay: Cell viability assay (MTS); type: cell-based; conditions: nucleobase combined with potentiators (6MMPR and prodrugs)
Protocol: as §2, §3

[5] = compound alone, DENV replicon cells, MTS, three days
[6] = 72 h, compound alone, DENV BHK replicon cells, luciferase, three days
[7] = Table 3, nucleobase dose-response plus vehicle (DMSO)
[8] = nucleobase dose-response +6MMPR 0.065 μM
[9] = nucleobase dose-response +Prdg 1 0.09 μM
[10] = nucleobase dose-response +Prdg 2 1.5 μM
[11] = nucleobase dose-response +Prdg 3 1.4 μM
[12] = 72 h, Table 3, nucleobase dose-response plus vehicle (DMSO)

## O=c1ccn([C@@H]2O[C@H](CO)[C@@H](O)[C@H]2O)c(=S)[nH]1 [2-thiouridine]
[1]
  antiviral activity, ZIKV reporter virus replication (in words): observe antiviral activity
[2]; [5]
  CC50 at 3 days: > 50 µM
DENV replicon; [6]
  EC50: > 50 µM
DENV replicon; compound alone, DENV BHK replicon cell line
  anti-replicon activity (in words): we did not observe activity
[3]
  antiviral activity, DENV-induced cytopathic effects (in words): observe antiviral activity

## O=c1[nH]cc(F)c(=O)[nH]1 [5-fluorouracil]
[2]; [5]
  CC50 at 3 days: 0.93 µM
DENV replicon; [6]
  EC50: 0.74 µM

## Cc1c(-c2ccc(-c3ccccc3F)cc2)nc2ccc(F)cc2c1C(=O)O [Brequinar]
[2]; [5]
  CC50 at 3 days: 4.5 µM
DENV replicon; [6]
  EC50: 3 µM

## NC(=O)c1nc(F)c[nH]c1=O [Favipiravir]
[2]; [7]
  CC50 at 3 days: > 500 µM
[2]; [5]
  CC50 at 3 days: > 500 µM
[2]; [8]
  CC50 at 3 days: > 500 µM
[2]; [9]
  CC50 at 3 days: > 500 µM
[2]; [10]
  CC50 at 3 days: > 500 µM
[2]; [11]
  CC50 at 3 days: > 500 µM
DENV replicon; [12]
  EC50: 128 µM
DENV replicon; [6]
  EC50: 114 µM
DENV replicon; [8]
  EC50: 63 µM
DENV replicon; [9]
  EC50: 51 µM
DENV replicon; [10]
  EC50: 47 µM
DENV replicon; [11]
  EC50: 46 µM
DENV replicon; listed as FAV
  potentiation of anti-replicon activity (in words): clear enhanced effect; also recorded: reduction in the EC50 value

## CC(C)C(=O)OC[C@H]1O[C@@H](n2ccc(NO)nc2=O)[C@H](O)[C@@H]1O [Molnupiravir]
[2]; [5]
  CC50 at 3 days: 53 µM
DENV replicon; [6]
  EC50: 6.2 µM

## CSc1ncnc2c1ncn2[C@@H]1O[C@H](COC(=O)C(C)C)[C@@H](OC(=O)C(C)C)[C@H]1OC(=O)C(C)C [Prdg 1]
[2]; [5]
  CC50 at 3 days: 2.6 µM
DENV replicon; [6]
  EC50: 0.26 µM

## O=c1cc[nH]c(=S)[nH]1 [Prdg 2-thiouracil, 2-thiouracil]
[2]; [5]
  CC50 at 3 days: > 50 µM
DENV replicon; [6]
  EC50: > 50 µM

## CSc1ncnc2c1ncn2[C@@H]1O[C@H](COC(=O)N(C)C)[C@@H](O)[C@H]1O [Prdg 2]
[2]; [5]
  CC50 at 3 days: 5.4 µM
DENV replicon; [6]
  EC50: 2.5 µM

## CSc1ncnc2c1ncn2[C@@H]1O[C@H](COC(=O)N(C)C)[C@@H](OC(=O)C(C)C)[C@H]1OC(=O)C(C)C [Prdg 3]
[2]; [5]
  CC50 at 3 days: 2.4 µM
DENV replicon; [6]
  EC50: 2.3 µM

## O=c1cnn([C@@H]2O[C@H](CO)[C@@H](O)[C@H]2O)c(=O)[nH]1 [Prdg 6-azauridine, 6-azauridine]
[2]; [5]
  CC50 at 3 days: 8.8 µM
DENV replicon; [6]
  EC50: 1.9 µM

## CSc1ncnc2c1ncn2[C@@H]1O[C@H](CO)[C@@H](O)[C@H]1O [Prdg 6MMPR, 6-methylmercaptopurine riboside]
[2]; [5]
  CC50 at 3 days: 0.21 µM
DENV replicon; [6]
  EC50: 0.21 µM

## NC(=O)c1ncc[nH]c1=O [Prdg T-1105]
[2]; [7]
  CC50 at 3 days: > 167 µM
[2]; [5]
  CC50 at 3 days: > 500 µM
[2]; [8]
  CC50 at 3 days: > 167 µM
[2]; [9]
  CC50 at 3 days: > 167 µM
[2]; [10]
  CC50 at 3 days: > 167 µM
[2]; [11]
  CC50 at 3 days: > 167 µM
DENV replicon; [12]
  EC50: 15 µM
DENV replicon; [6]
  EC50: 13 µM
DENV replicon; [8]
  EC50: 11 µM
DENV replicon; [9]
  EC50: 8.3 µM
DENV replicon; [10]
  EC50: 10 µM
DENV replicon; [11]
  EC50: 9.6 µM
DENV replicon
  potentiation of anti-replicon activity (in words): strongly potentiated

## NC(=O)c1nc[nH]n1 [Ribavirin nucleobase]
DENV
  anti-DENV activity (in words): similarly strong antiviral activity
  cytotoxicity (in words): considerably less cytotoxic than ribavirin
DENV; listed as ribavirin nucleobase
  anti-DENV activity (in words): strong
  cytotoxicity (in words): non-cytotoxic
[4]
  toxicity of combination (in words): conferred some toxicity not shown by either compound alone
[2]; [7]
  CC50 at 3 days: > 50 µM
[2]; [5]
  CC50 at 3 days: > 100 µM
[2]; [8]
  CC50 at 3 days: > 50 µM
[2]; [9]
  CC50 at 3 days: > 50 µM
[2]; [10]
  CC50 at 3 days: > 50 µM
[2]; [11]
  CC50 at 3 days: > 50 µM
DENV replicon; [12]
  EC50: 5.7 µM
DENV replicon; [6]
  EC50: 5.7 µM
DENV replicon; [8]
  EC50: 3.4 µM
DENV replicon; [9]
  EC50: 2.3 µM
DENV replicon; [10]
  EC50: 0.88 µM
DENV replicon; [11]
  EC50: 2.6 µM
DENV replicon
  potentiation of anti-replicon activity (in words): can be potentiated
